Data published in PMC8012331, “Drug-induced hepatic steatosis in absence of severe mitochondrial dysfunction in HepaRG cells: proof of multiple mechanism-based toxicity” (Cell Biology and Toxicology, 2020).
Values joined by “and” are separate entries in the source; they are usually repeats but may differ in a detail not shown here. Equal entries are not always repeated. Where two headings read alike, the source gives them in different places.

Tests used:
ATP citrate lyase (ACLY) = assay: RT-qPCR ACLY mRNA in HepaRG cells; type: cell-based, human; conditions: 4 days, vs control
Procedure: (§1) Total RNA was extracted with the Nucleospin RNA isolation system purchased from Macherey-Nagel (Düren, Germany), which included a DNase treatment step. Quantification of isolated RNAs was assessed using a Nanodrop 1000 (Thermo Fisher Scientific, Waltham, MA). RNAs were reverse-transcribed into cDNAs using the High-Capacity cDNA Reverse Transcription Kit purchased from Applied Biosystems (Woolston, UK). Gene expression was assessed by real-time quantitative PCR analysis (RT-qPCR) using SYBR Green PCR Master Mix (Applied Biosystems) and a 384-well QuantStudio™ 7 Flex Real-Time PCR System (Thermo Fisher Scientific). Sequences of the primers used to measure gene expression are presented in Supplementary Table 3. Expression of GAPDH was chosen as reference and the 2^−ΔΔCt calculation method was used to express the relative expression of each selected gene.

HepaRG cells [1] = assay: Neutral lipids with Nile red in HepaRG cells; conditions: 4 days, selected concentrations (ATP loss < 30%, not above 100 × Cmax), vs control
Procedure: (§2) Briefly, HepaRG cells were seeded in 96-well plates at a density of 2.6 × 10^4 cells/cm^2 and were first incubated in William’s E medium supplemented with 10% FBS (50% FBS from Eurobio and 50% FBS from GE Healthcare), 100 U/mL penicillin, 100 μg/mL streptomycin, 2 mM glutamine, 5 μg/mL insulin, and 50 μM hydrocortisone hemisuccinate. […] During this 1-month period, the culture medium was renewed three times a week. […] HepaRG cells were next cultured in the same FBS/DMSO conditions and incubated for 4 days with each drug at different concentrations. Culture medium was renewed every day and all investigations were performed after 96 h (i.e., 24 h after the fourth treatment). These investigations were mostly performed in 96-well plates except for western blot analysis, for which 6-well plates were used. Experiments were carried out on passages 9 to 16. All drugs (except DPEN), etomoxir, lomitapide, tunicamycin, thapsigargin, and TUDCA were dissolved in DMSO. DPEN was dissolved in water.
(§3) Cells were then incubated with PBS containing 0.1 μg/mL Nile red for 30 min and washed once. […] For each well, four pictures were taken at a magnification of × 20 and analyzed with Columbus software (PerkinElmer) for quantification. These pictures were always taken in four different areas around the center of each well, and these areas were the same from one well to another, as programmed by the Columbus software. This software was also designed to count only living cells after exclusion of dying cells harboring nuclei with abnormal shape or altered Hoechst intensity. […] Neutral lipids were then normalized per number of nuclei and expressed relative to control cells. Examples of images used for neutral lipid quantification are shown in Supplementary Fig. 2.

[2] = system: stearoyl-CoA desaturase 1 (hSCD1); assay: RT-qPCR hSCD1 mRNA in HepaRG cells; type: cell-based, human; conditions: 4 days, vs control
Procedure: as §1

[3] = system: de novo lipogenesis (DNL); assay: DNL from [2-14C]acetic acid in HepaRG cells; type: cell-based, human; conditions: 4 days, vs control
Procedure: (§4) Experiments were carried out on passages 9 to 16. […] DPEN was dissolved in water.
DNL was assessed by measuring newly synthesized radiolabeled lipids from [2-^14C]acetic acid, using a protocol adapted from Byrne et al. ([2014]). Briefly, culture medium was removed and cells were washed with warm PBS. Next, cells were incubated for 3 h with phenol red-free William’s E medium containing 1% fatty acid-free BSA, [2-^14C]acetic acid (1850 Bq per well, corresponding to 19.4 pM) and 50 μM cold acetic acid. Medium was then gently removed and cells were washed with warm PBS before adding a mix of hexane/isopropanol (3:2; v/v). Cell culture plates were sealed and incubated for 1 h at room temperature for lipid extraction. After transfer of the plate content in 200-μL microtubes, hexane and PBS were added to have a hexane/isopropanol/PBS ratio of 6:2:3 (v/v/v). Microtubes were then centrifuged at 1000×g for 5 min and radiolabeled lipids were counted in the upper phase with a Tri-Carb 4910TR liquid scintillation counter (PerkinElmer). Results were normalized to total protein content and expressed in comparison to control cells.

[4] = system: mitochondrial fatty acid oxidation (mtFAO); assay: mtFAO with [U-14C]palmitic acid in HepaRG cells; type: cell-based, human; conditions: 4 days, vs control
Procedure: as §4
Results were normalized to total protein content determined using the Pierce BCA assay kit from Thermo Fischer Scientific (Waltham, MA). Results were expressed in comparison to control cells.

HepaRG cells [5] = assay: Cellular ATP level (CellTiter-Glo) in HepaRG cells; type: cell-based, human; conditions: 4 days, vs controls
Procedure: Cellular ATP level was measured using the CellTiter-Glo® Luminescent Cell Viability assay purchased from Promega (Charbonnières, France), according to the manufacturer’s instructions. Briefly, control and treated HepaRG cells were first washed with warm PBS and kept for 30 min at room temperature in phenol red-free William’s E medium. Cells were next incubated with the CellTiter-Glo® reagent for 10 min at room temperature. Cells were then transferred in opaque-walled multiwell plates and the luminescent signal was quantified using a POLARstar Omega microplate reader (BMG Labtech, Ortenberg, Germany). Results were expressed in comparison to control cells.

apoB secretion = assay: apoB level in culture medium (ELISA), HepaRG cells; type: cell-based, human; conditions: 4 days; for Effect on apoB secretion: culture medium, vs control
Procedure: as §4
Twenty-four hours after the last treatment, cell supernatants were removed and stored at − 80 °C until use for apolipoprotein measurement. ApoB level was measured using the Human Apolipoprotein B ELISA^pro kit from Mabtech (Nacka Strand, Sweden), according to the manufacturer’s instructions. Briefly, 50 μL of samples were diluted 2× in Apo ELISA buffer before a 2-h incubation in the precoated strip plates provided in the kit. The plates were washed and incubated 1 h with the biotinylated monoclonal anti-human apoB (LDL-11-biotin) antibody. The plates were then washed and incubated 1 h with a streptavidin–horseradish peroxidase conjugated antibody. After another washing, 3,3′,5,5′-tetramethylbenzidine (TMB) was used as substrate for 15 min before adding a stop solution. Absorbance at 450 nm was then measured using a POLARstar Omega microplate reader (BMG Labtech, Ortenberg). ApoB level was calculated utilizing a four-parameter standard curve, and normalized to the total cellular protein content and expressed in comparison to control cells.

[6] = cited from earlier work; for Cmax: read-out: Maximum plasma concentration (Cmax) in patients
[7] = system: fatty acid translocase (FAT, also known as CD36); assay: RT-qPCR FAT/CD36 mRNA in HepaRG cells; type: cell-based, human; conditions: 4 days
Procedure: as §1

[8] = treated patients, cited from earlier work
[9] = Maximum plasma concentration (Cmax) in patients; type: in vivo, human
[10] = system: acetyl-CoA carboxylase alpha (ACACA); assay: RT-qPCR ACACA mRNA in HepaRG cells; type: cell-based, human; conditions: 4 days, vs control
Procedure: as §1

apoC3 secretion = assay: apoC3 level in culture medium (HTRF), HepaRG cells; type: cell-based, human; conditions: 4 days; for Effect on apoC3 secretion: culture medium, vs control
Procedure: as §2
Apolipoprotein C3 (apoC3) level was measured using the Human Apolipoprotein C3 kit from Cisbio Bioassays (Codolet, France), according to the manufacturer’s instructions. Briefly, 10 μL of supernatants was incubated with two different specific anti-human apoC3 antibodies, one donor and one acceptor. The detection principle of apoC3 is based on HTRF® (Homogeneous Time Resolved Fluorescence), a time-resolved FRET (Förster Resonance Energy Transfer) technology. After 2 h of incubation, light emission was measured with the Infinite F Nano+ microplate reader (Tecan, Männedorf, Switzerland). ApoC3 level was calculated utilizing standard curve, based on the ratio of A665 nm/A615 nm, and normalized to the total cellular protein content. Results were expressed in comparison to control cells.

[11] = system: fatty acid synthase (FASN); assay: RT-qPCR FASN mRNA in HepaRG cells; type: cell-based, human; conditions: 4 days, vs control
Procedure: as §1

ERN1 (IRE1α) = assay: RT-qPCR ERN1 mRNA in HepaRG cells; type: cell-based, human; conditions: 4 days, vs control
Procedure: as §1

[12] = system: primary human hepatocytes (PHH); assay: Neutral lipids with Nile red in primary human hepatocytes; type: cell-based; conditions: 4 days
Procedure: Primary human hepatocytes (PHH) were purchased from Biopredic International (Saint-Grégoire, France). Cells were seeded by the supplier in coated 96-well plates at a density of 5 × 10^4 cells/well. Upon receipt, culture medium was removed and replaced by William’s E medium supplemented as previously described for HepaRG cell differentiation, except for DMSO set at 1%. After 2–3 days, cells were treated as for HepaRG cells. For HepaRG cells and PHH, cells were always maintained in incubators at 37 °C with 5% CO2 and saturating humidity.
as §3

[13] = system: microsomal triglyceride transfer protein (MTTP); assay: RT-qPCR MTTP mRNA in HepaRG cells; type: cell-based, human; conditions: 4 days, vs control
Procedure: as §1

apolipoprotein B (APOB) = assay: RT-qPCR APOB mRNA in HepaRG cells; type: cell-based, human; conditions: 4 days, vs control
Procedure: as §1

[14] = system: apolipoprotein C3 (APOC3); assay: RT-qPCR APOC3 mRNA in HepaRG cells; type: cell-based, human; conditions: 4 days, vs control
Procedure: as §1

[15] = system: angiopoietin-like 3 (ANGPTL3); assay: RT-qPCR ANGPTL3 mRNA in HepaRG cells; type: cell-based, human; conditions: 4 days, vs control
Procedure: as §1

[16] = high dose chemotherapy, ref Holmboe L et al., Br J Clin Pharmacol. 2012;73(1):106-14
[17] = rheumatoid arthritis treatment, ref Hoekstra M et al., J Rheumatol. 2004;31(4):645-8
[18] = worked out from cited Cmax in patients

Concentration corresponding to 100xCmax [9, 18] [µM]	Compound	ACLY mRNA level (ATP citrate lyase (ACLY))	Accumulation of neutral lipids (steatosis) (HepaRG cells [1])	Effect on DNL [3]	Effect on mtFAO [4]	Loss of cellular ATP relative to the maximum concentration selected for the study (HepaRG cells [5])	Effect on apoB secretion (apoB secretion)	Effect on apoC3 secretion (apoC3 secretion)	Maximum plasma concentration (Cmax) in patients ([6]; patients, ref given per drug) [ng/mL]	Cmax ([6]; patients, ref given per drug) [µM]	ERN1 (IRE1α) mRNA level (ERN1 (IRE1α))	also measured
–	CCCCc1oc2ccccc2c1C(=O)c1cc(I)c(OCCN(CC)CC)c(I)c1 [AMIO, amiodarone]	enhanced mRNA level	significant accumulation of neutral lipids	increased DNL	–	–	–	–	–	–	–	hSCD1 mRNA level [2]: enhanced mRNA level
–	CN(Cc1cnc2nc(N)nc(N)c2n1)c1ccc(C(=O)N[C@@H](CCC(=O)O)C(=O)O)cc1 [METHO, methotrexate]	–	significant accumulation of neutral lipids	curb this metabolic pathway	significantly enhance mtFAO	150 µM (loss of cellular ATP below 30% of the controls for this concentration, as shown in Supp. fig 1)	did not reduce	–	–	–	–	Maximum plasma concentration (Cmax) in patients [6, 16]: ≤ 680000 ng/mL; Cmax [6, 16]: ≤ 1500 µM; Maximum plasma concentration (Cmax) in patients [6, 17]: ≤ 594 ng/mL; Cmax [6, 17]: ≤ 1.3 µM; Increase of FAT/CD36 mRNA level ([7]; 50 μM): 60%; Increase of FAT/CD36 mRNA level ([7]; 150 μM): 55%; Therapeutic blood (or plasma) concentration in patients ([8]; ref Schulz M et al., Crit Care 2012 ;16(4):R136, listed as Methotrexate (METHO)): 0.04 mg/L and 0.09 µM; Concentration corresponding to 100xCmax ([9]; from Cmax of high dose chemotherapy): 150000 µM; Concentration corresponding to 100xCmax ([9]; from Cmax of rheumatoid arthritis treatment): 130 µM
3200	CC1=C(CC(=O)O)c2cc(F)ccc2/C1=C\c1ccc([S+](C)[O-])cc1 (stereo not shown) [SUL, sulindac]	augmented mRNA abundance	significant accumulation of neutral lipids	increased DNL	–	1000 µM (loss of cellular ATP above 30% of the controls for higher concentrations, as shown in Supp. fig 1)	reduced the secretion	reduced the secretion	≤ 11400	≤ 32	enhanced IRE1α mRNA level	ACACA mRNA level [10]: augmented mRNA abundance; FASN mRNA level [11]: augmented mRNA abundance; Therapeutic blood (or plasma) concentration in patients ([8]; ref Schulz M et al., Crit Care 2012 ;16(4):R136, listed as Sulindac (SUL)): 1 - 5 mg/L and 2.8 - 14 µM
640	Cc1c(C)c2c(c(C)c1O)CCC(C)(COc1ccc(CC3SC(=O)NC3=O)cc1)O2 (stereo not shown) [TRO, troglitazone]	–	significant accumulation of neutral lipids	curb this metabolic pathway	significantly enhance mtFAO	47.5 µM (loss of cellular ATP above 30% of the controls for higher concentrations, as shown in Supp. fig 1)	reduced the secretion	reduced the secretion	≤ 2830	≤ 6.4	enhanced IRE1α mRNA level	Secretion of apoC3 (apoC3 secretion; 45 and 47.5 μM): less than 10 % of the respective control; Steatosis in PHH batches (six batches tested) [12]: induced steatosis in only one PHH batch; Secretion of apoB (apoB secretion; 45 and 47.5 μM): less than 10 % of the respective control; MTTP mRNA level [13]: nearly abolish the mRNA abundance; Therapeutic blood (or plasma) concentration in patients ([8]; ref Loi CM et al., J Clin Pharmacol 1999;39(9):920-6, Plosker GL and Faulds D. Drugs 1999;57(3):409-438, listed as Troglitazone (TRO)): 0.90 - 2.82 mg/L and 2.0 - 6.4 µM; APOB mRNA level (apolipoprotein B (APOB)): nearly abolish the mRNA abundance; APOC3 mRNA level [14]: nearly abolish the mRNA abundance; ANGPTL3 mRNA level [15]: nearly abolish the mRNA abundance
